What is called Ki is the equilibrium dissociation constant of an inhibitor or competing ligand from its target. High values mean lower affinity, low ones higher affinity.

This is an account of results in ChEMBL document CHEMBL1131124, “Selective inhibitors of human lactate dehydrogenases and lactate dehydrogenase from the malarial parasite Plasmodium falciparum” (J Med Chem, 1998).

The test concerns the target L-lactate dehydrogenase B chain (Homo sapiens, UniProt P07195).

L-lactate dehydrogenase B chain, sequence (P07195 whole entry): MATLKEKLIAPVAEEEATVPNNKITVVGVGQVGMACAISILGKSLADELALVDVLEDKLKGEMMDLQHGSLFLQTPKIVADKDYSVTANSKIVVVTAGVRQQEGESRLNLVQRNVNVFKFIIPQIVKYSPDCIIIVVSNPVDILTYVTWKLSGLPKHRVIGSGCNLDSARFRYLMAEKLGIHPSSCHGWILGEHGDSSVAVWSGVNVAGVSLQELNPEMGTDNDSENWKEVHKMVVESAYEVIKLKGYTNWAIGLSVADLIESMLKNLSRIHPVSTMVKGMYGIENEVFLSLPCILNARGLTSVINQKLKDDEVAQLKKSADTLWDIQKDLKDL
Description: inhibitory activity against Human Lactate Dehydrogenase (LDH-H)

`CCCc1c(O)c(O)c(C(=O)O)c2cc(Cc3ccccc3)c(C)cc12`: affinity was put at a Ki of 1 µM.

In turn, `CCCc1c(O)c(O)c(C(=O)O)c2ccc(C)cc12` yielded a Ki of 49 µM. Against the preceding compound, the Ki is about 49-fold higher.

On to `Cc1cc2c(C(C)C)c(O)c(O)c(C(=O)O)c2cc1Cc1ccccc1`, for which the affinity, expressed as Ki, was 7 µM.
